Source: patent US20230392170A1, “BIG-IN: A VERSATILE PLATFORM FOR LOCUS-SCALE GENOME REWRITING AND VERIFICATION” (New York University, priority 2020, published 2023)
Entries after “also recorded” stand apart in the source; their conditions may differ.

What was measured:
[1] = system: H1 hESCs; assay: TK/GCV counterselection in co-cultures of TK-negative and TK-positive (LP-TK) cells, live cells by PrestoBlue; type: cell-based, human; conditions: 1 μM GCV for 4 days
Description: FIG. 2. Development of an efficient counterselection strategy. a, Parental (TK−) and LP-TK (TK+) H1 hESCs were co-cultured at the indicated ratios, treated with 1 μM, GCV for 4 days, and assayed for the number of live cells using PrestoBlue. Cell counts are shown relative to unmixed parental cells. Bars show mean+S.D. (n=2). b, GCV enters TK+ cells and is metabolized into the toxic membrane-impermeable compound GCV-TP, which diffuses into neighboring cells and induces bystander cell death in TK-cells. c, Big-IN counterselection strategy using PIGA/Proaerolysin. d, Parental and ΔPIGA H1 hESCs co-cultured at the indicated ratios for three days were treated with 1 nM proaerolysin for 1 day and stained with Crystal Violet 3 days later. e, Parental and ΔPiga BL6xCAST mESCs were co-cultured at the indicated ratios for one day, treated with 1 nM proaerolysin for 1 day, stained with Crystal Violet 5 days later, and colonies were counted. Bars represent mean+S.D. (n=2).
Delivery of large DNA through cassette exchange is an infrequent event, requiring selection to obtain practical efficiency. The HSV1-TK gene is a widely used counterselectable marker that renders cells sensitive to GCV by converting it to the toxic metabolite GCV-triphosphate (GCV-TP), which inhibits DNA synthesis and leads to cell death^38. […]

[2] = system: Parental H1 cells; assay: GCV/TK bystander paracrine test: parental cells in medium or LP-TK conditioned medium with GCV; type: cell-based, human; conditions: 0.1 μM GCV, 7 days, also when preincubated with LP-TK cells (conditioned medium)
Description: FIG. 8. Development of an efficient counterselection strategy. a, Lack of paracrine activity in GCV/TK bystander effect. Parental H1 cells were grown for 7 days with regular StemFlex medium with or without 0.1 μM GCV or with a 1:1 mixture of regular medium and conditioned medium harvested from LP-TK cells grown with or without 0.1 μM GCV. […] Bars represent mean+S.D. for technical replicates (n=3). b, PCR genotyping for parental (Par), ΔPIGA and LP-PIGA H1 hESCs. Primers target a region of the PIGA gene (WT PIGA), the novel junction formed following PIGA deletion (ΔPIGA), a region of HPRT1 gene (WT HPRT1) and the two novel junctions formed between LP-PIGA and the surrounding genome (LP L and R Jx). c, Proaerolysin-induced cell death. The indicated H1 hESCs were treated with 0.5 nM proaerolysin for 1 day and stained with Crystal Violet. Proaerolysin resistance is conferred by PIGA inactivation and restored by hmPIGA expression. d, Rapid proaerolysin-induced cell death. e, Proaerolysin kill-curve for H1 hESCs and BL6xCAST mESCs. Cells were treated with proaerolysin for 1 day and assayed 3 days (H1) or 1 day (BL6xCAST) post treatment. Experiment was conducted in replicates (H1, n=4; BL6xCAST, n=2) and data are represented as mean±S.D. f, CD59/HLA flow cytometry of H1 hESCs. […]

[3] = system: H1 LP-TK hESCs (HSV1-ΔTK); assay: GCV kill-curve assay, LP-TK clone 581 vs parental cells, live cells by PrestoBlue; conditions: indicated GCV concentrations for 3 days
Description: Bars represent mean+S.D. of technical replicates (n=3). c, H1 LP-TK clone 581 and non-engineered parental H1 hESCs were treated with the indicated concentrations of GCV for 3 days, followed by quantification of live cells using PrestoBlue. Data were normalized to the value of untreated cells.
PrestoBlue (ThermoFisher Scientific A13262) staining was performed according to the manufacturer's protocol.

[4] = system: H1 hESCs; assay: Proaerolysin-induced cell death, Crystal Violet staining / kill-curve; type: cell-based, human
Description: FIG. 8. Development of an efficient counterselection strategy. a, Lack of paracrine activity in GCV/TK bystander effect. Parental H1 cells were grown for 7 days with regular StemFlex medium with or without 0.1 μM GCV or with a 1:1 mixture of regular medium and conditioned medium harvested from LP-TK cells grown with or without 0.1 μM GCV. […] Bars represent mean+S.D. for technical replicates (n=3). b, PCR genotyping for parental (Par), ΔPIGA and LP-PIGA H1 hESCs. Primers target a region of the PIGA gene (WT PIGA), the novel junction formed following PIGA deletion (ΔPIGA), a region of HPRT1 gene (WT HPRT1) and the two novel junctions formed between LP-PIGA and the surrounding genome (LP L and R Jx). c, Proaerolysin-induced cell death. The indicated H1 hESCs were treated with 0.5 nM proaerolysin for 1 day and stained with Crystal Violet. Proaerolysin resistance is conferred by PIGA inactivation and restored by hmPIGA expression. d, Rapid proaerolysin-induced cell death. e, Proaerolysin kill-curve for H1 hESCs and BL6xCAST mESCs. Cells were treated with proaerolysin for 1 day and assayed 3 days (H1) or 1 day (BL6xCAST) post treatment. Experiment was conducted in replicates (H1, n=4; BL6xCAST, n=2) and data are represented as mean±S.D. f, CD59/HLA flow cytometry of H1 hESCs. Note the complete loss of CD59, a GPI-anchored protein, in ΔPIGA cells, and the retention of HLA, a non-GPI-anchored membranal protein. g, Flow cytometry of H1 hESCs showing the reconstitution of CD59 expression in LP-PIGA cells.
Integration of a landing pad expressing a human mini PIGA gene (hmPIGA) to the HPRT1 locus resensitized H1 ΔPIGA hESCs to proaerolysin and restored CD59 expression (FIG. 7c, FIG. 7g). Importantly, rare ΔPIGA H1 hESCs were efficiently isolated when co-cultured with parental H1 cells by applying proaerolysin selection (FIG. 2d). Similarly, the Piga/proaerolysin counterselection strategy was used to efficiently isolate rare mESCs (FIG. 2e).

Row | Compound | TK-negative cells that died when mixed with TK-positive cells ([1]; 1:1 ratio TK-negative:TK-positive) | death of TK-negative cells when mixed with TK-positive cells ([1]; 1:10 ratio TK-negative:TK-positive) | effect on parental (TK-negative) H1 cells [2] | cytotoxicity to LP-TK (HSV1-ΔTK expressing) H1 hESCs [3] | sensitivity of H1 ΔPIGA hESCs after landing pad expressing hmPIGA at HPRT1 ([4]; LP-PIGA H1 hESCs) | killing of parental H1 hESCs ([4]; parental H1 hESCs) | sensitivity of ΔPIGA H1 hESCs ([4]; ΔPIGA cells (PIGA deleted using CRISPR/Cas9))
1 | Nc1nc(O)c2ncn(COC(CO)CO)c2n1 [GCV, Ganciclovir] | More than 80% | all died | no effect | kills LP-TK cells; also recorded: Robust cytotoxic activity | – | – | –
2 | proaerolysin: a bacterial prototoxin; perforates the plasma membrane upon binding to GPI anchors on the cell surface | – | – | – | – | resensitized | efficiently killed | entirely resistant
